From US9896487B2, “Amyloidosis-inhibiting polypeptides and their use” (UNIVERSITY OF WASHINGTON THROUGH ITS CENTER FOR …, priority 2013, dated 2018)
“Also recorded” adds a separate entry of the source. Where a SMILES comes first, the peptide text is derived from it. [ ]: non-standard residue; d: D form.

Experiments:
[1] = biological target: T1, TTR (Homo sapiens, UniProt P02766); test: Immobilized designs on agarose beads, binding of TTR from solution (dot blot); settings: immobilized design; for binding of pre-incubated, toxic oligomer-containing TTR: TTR pre-incubated at low pH for 24 hrs
T1 construct: purchased Lee Biosolutions, St. Louis Mo; 496-11

[2] = biological target: T2, Aβ (Homo sapiens, UniProt P05067); test: Immobilized designs on agarose beads, binding of Aβ from solution (dot blot); settings: immobilized design; for binding of pre-aggregated, toxic Aβ: Aβ pre-aggregated for 6 hrs
T2 construct: Aβ (1-42) (AMYD-002; CPC Scientific, Sunnyvale Calif.); purchased CPC Scientific, Sunnyvale Calif; AMYD-002

[3] = Solubility and solution behaviour of the designs; settings: for solubility: aqueous solution-phase experiments
[4] = biological target: T3, transthyretin (TTR) (Homo sapiens, UniProt P02766); test: TTR fibrillization assay (Congo red binding); type: biochemical; settings: for inhibition of the remaining TTR aggregation: peptide added to 24-hour pre-incubated, toxic TTR, versus aggregation in the absence of inhibitor
T3 construct: purchased Lee Biosolutions, St. Louis Mo; 496-11
Protocol: Aliqouts of transthyretin (TTR) (496-11; Lee Biosolutions, St. Louis Mo.) were made from a 1 mg/mL solution 20 mM ammonium carbonate, pH 8. Aliquots were lyophilized and stored at −18° C. Prior to use, TTR was dissolved to 80 μM (monomer) in acetate buffer (50 mM potassium acetate, 100 mM potassium chloride pH 4.5) and sonicated for 10 minutes. The stock solution was centrifuged before use. Peptide designs were added to stock TTR to a final TTR concentration of 40 μM (monomer) in acetate buffer (pH 4.5) in 500 μL microcentrifuge tubes, which were incubated at 37° C. Periodically, samples were collected from the TTR:peptide mixture by briefly centrifuging, and then carefully pipetting the solution up and down prior to withdrawing a 10 μL sample and diluting it in 190 μL of 10 μM Congo red in an individual well of a 96-well assay plate. Each measurement was performed in triplicate. Absorbance measurements were taken at 477 and 540 nm. Relative Congo red binding was determined using the method of Klunk et al. using the relationship: rCb=(Abs540/25,295)−(Abs477/46,306) (40). All datapoints were normalized to the value recorded for TTR alone pH 4.5 at 48 hrs.
(§1) The “control” designs were tested as general inhibitors against the Amyloid β 1-42 peptide (Aβ) (panel A), the islet amylin polypeptide (IAPP, or amylin, which is implicated in type 2 diabetes) (panel B), and transthyretin (TTR) (panel C) amyloidosis (FIG. 6). […] As described in Example 1, a Thioflavin T (ThT) fluorescence assay was used to monitor Aβ and IAPP aggregation. A Congo Red dye-binding assay was used to monitor TTR fibrillization. For inhibition against Aβ, peptides were co-incubated at 4-fold excess of Aβ at RT in neutral pH buffer containing ThT. Note that the results for α1 differ somewhat from what are included in Example 1 because the assay conditions were altered slightly to slow the process down to favor oligomerization of Aβ (rather than fibril elongation) by lowering the temperature to 25° C. […] For inhibition against IAPP, peptides were co-incubated at 8-fold excess of IAPP at 37° C. in neutral pH buffer containing 20 μM ThT. For inhibition against TTR, peptides were co-incubated at 10-fold excess of monomeric TTR.

[5] = biological target: T4, Aβ (1-42) (Homo sapiens, UniProt P05067); test: Aβ fibrillization assay (Thioflavin T fluorescence); type: biochemical; settings: for time of aggregation at which the inhibitory effect is exerted: 10:1 excess, 37° C., ThT; for inhibition of Aβ fibril formation: co-incubated in 10:1 excess (100 μM peptide, 10 μM Aβ), pH 7.4, 37° C., measured at 22 hours; for inhibition of aggregation of pre-aggregated, toxic Aβ: designs added to Aβ pre-aggregated for 6 hrs, versus aggregation in the absence of inhibitor
T4 construct: Aβ (1-42) (AMYD-002; CPC Scientific, Sunnyvale Calif.); purchased CPC Scientific, Sunnyvale Calif; AMYD-002
Protocol: Similarly, the designs were co-incubated (in 10:1 excess) with Aβ at pH 7.4 and followed fibril formation with ThT fluorescence changes upon binding at 37° C. (FIG. 2c). As observed for TTR, both α1 and α3 inhibited aggregation. Again α1 was more efficient, inhibiting approximately 87% of fibril formation compared with 66% for α3, when measured after the reaction stabilized at 22 hours. […] The 37° C. studies are reported here, though, for comparison with TTR, which aggregates very slowly at 25° C.
Aβ (1-42) (AMYD-002; CPC Scientific, Sunnyvale Calif.) was stored as 2 mg/mL stock in hexafluoroisopropanol (HFIP) at −18° C. Prior to use, the stock solution was thawed, an aliquot taken and the HFIP was removed under a gentle stream of air. A 1 mg/mL stock solution of Aβ was made in 5 mM NaOH and sonicated for 5-10 minutes. The stock was filtered through a 0.22 μm cellulose filter (Costar Spin-X; Corning Inc, NY). The concentration of stock Aβ was determined by first diluting the stock 1:50 in 5 mM NaOH then taking the absorbance at 220 nm (ε220=50,000 cm^−1 M^−1). Aliquots of the NaOH stock were placed in separate wells of a 96-well black-walled fluorescence plate (Nunc) and immediately diluted in PBS (11 mM phosphate) containing 20 μM Thioflavin T (ThT) to give 150 μL of 10 μM Aβ at pH 7.5. Peptide inhibitors were added directly to 10 μM Aβ samples from concentrated aqueous stocks. Covered plates were incubated at 37° C. and were periodically removed for fluorescence measurements. ThT fluorescence was measured at λex=450 nm and λem=480 nm using a Tecan Safire2 plate reader.
as §1

[6] = tested on: Aβ, IAPP and TTR amyloidosis / toxic oligomer; test: Inhibitory activity summary: inhibition of aggregation and/or binding of toxic oligomer; type: biochemical
Protocol: In addition, FIG. 5 contains ‘control’ designs aimed at reverse engineering the α1 design, which is presented in more detail in Example 3. […] These designs are both linear and cyclic peptides designed to be hairpins.
The “control” designs were tested as general inhibitors against the Amyloid β 1-42 peptide (Aβ) (panel A), the islet amylin polypeptide (IAPP, or amylin, which is implicated in type 2 diabetes) (panel B), and transthyretin (TTR) (panel C) amyloidosis (FIG. 6). […] As described in Example 1, a Thioflavin T (ThT) fluorescence assay was used to monitor Aβ and IAPP aggregation. A Congo Red dye-binding assay was used to monitor TTR fibrillization. For inhibition against Aβ, peptides were co-incubated at 4-fold excess of Aβ at RT in neutral pH buffer containing ThT. […] For inhibition against IAPP, peptides were co-incubated at 8-fold excess of IAPP at 37° C. in neutral pH buffer containing 20 μM ThT. For inhibition against TTR, peptides were co-incubated at 10-fold excess of monomeric TTR.
The data in FIG. 6 were normalized to ThT fluorescence of the negative (uninhibited) control (black squares). Inhibition traces are ordered vertically according to sequence identity to α1 (see Table 1). Sigmoidal fits to data are included. Controls are identical throughout a single panel, and traces for inhibition samples are colored while the uninhibited aggregation profiles are in black.

[7] = tested on: human neuroblastoma cell line SH-SY5Y
Protocol: The toxicity of aggregates was tested against the human neuroblastoma cell line SH-SY5Y in an MTT cell viability assay. The human neuroblastoma cell line SH-SY5Y (CRL-226; American Type Culture Collection) was grown in 75 cm^2 flasks in 1:1 DMEM/F12 (CellGro) supplemented with 10% FBS and 50 units/mL penicillin/50 μg/mL streptomycin (complete media), and incubated at 37° C. in humidified 5% CO2 environment. Cells were routinely passaged when they reached 90% confluence by addition of trypsin (Gibco) and replated at a ratio of 1:10 in complete media. Cells were plated to a density of 25,000 cells/well in a 96-well plate (100 μL/well) and allowed to attach overnight. The cell assay was performed as described by Reixach et al. (41).

T2 sequence (P05067 672-713 limits assumed): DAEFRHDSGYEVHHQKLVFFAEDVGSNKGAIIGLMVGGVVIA
T4 sequence (P05067 672-713 limits assumed): as above

## CSCC[C@H](NC(=O)[C@@H](CCCCN)NC(=O)[C@H](CS)NC(=O)[C@@H](CC(N)=O)NC(=O)[C@H](CCSC)NC(=O)[C@H](NC(=O)[C@H](Cc1c[nH]c2ccccc12)NC(=O)CNC(=O)[C@H](Cc1ccc(O)cc1)NC(=O)[C@H](Cc1ccc(O)cc1)NC(=O)[C@H](CCC(=O)O)NC(=O)[C@H](CC(N)=O)NC(=O)[C@H](CCSC)NC(=O)[C@@H](Cc1c[nH]c2ccccc12)NC(=O)[C@H](Cc1ccccc1)NC(=O)[C@@H](Cc1ccc(O)cc1)NC(=O)[C@H](CC(N)=O)NC(=O)[C@@H](CCSC)NC(=O)[C@H](CCC(=O)O)NC(=O)CNC(=O)[C@H](CCCNC(=N)N)NC(C)=O)[C@H](C)O)C(=O)NCC(=O)N[C@@H](CCCNC(=N)N)C(N)=O [α2] (Ac-RGE[dM]N[dY]F[dW]MNEYYGW[dT]M[dN]C[dK]MGR-NH2)
[1]
  binding of pre-incubated, toxic oligomer-containing TTR: to a greater extent than the rc and β controls; also recorded: more strongly bound
[2]
  binding of pre-aggregated, toxic Aβ: bound pre-aggregated, toxic Aβ preferentially
[3]
  solubility: sparingly soluble; also recorded: not soluble enough for NMR

## CSCC[C@@H]1NC(=O)[C@@H]([C@H](C)O)NC(=O)[C@H](Cc2c[nH]c3ccccc23)NC(=O)[C@@H](C)NC(=O)[C@H](C)NC(=O)[C@H](C)NC(=O)[C@H](C)NC(=O)[C@H](CC(N)=O)NC(=O)[C@H]([C@@H](C)O)NC(=O)[C@@H](Cc2c[nH]c3ccccc23)NC(=O)[C@H](CO)NC(=O)[C@@H](CCCCN)NC(=O)[C@H](CCC(N)=O)NC(=O)[C@@H](CCC(N)=O)NC(=O)[C@H](CCCCN)NC(=O)[C@H](CC(N)=O)NC(=O)[C@H]2CCCN2C(=O)[C@H](CCC(=O)O)NC(=O)[C@@H](CCCCN)NC(=O)[C@H](CC(C)C)NC(=O)[C@@H](CCC(N)=O)NC1=O [α3] (cyclo([dQ]Q[dK]S[dW]TNAAA[dA]W[dT]M[dQ]L[dK]E[dP]NK))
[4]
  inhibition of the remaining TTR aggregation: 77%
[4]; peptide co-incubated in excess 20:1 (800 μM) with 40 μM TTR monomer, pH 4.5, 37° C., after 48 hours, relative to TTR alone at low pH, read-out: percentage inhibition of TTR aggregation
  inhibition at 800 µM: 56%
[5]
  time of aggregation at which the inhibitory effect is exerted: approximately 6 hrs
  inhibition of Aβ fibril formation: 66%
  inhibition of aggregation of pre-aggregated, toxic Aβ: 96%
[1]
  binding of pre-incubated, toxic oligomer-containing TTR: to a greater extent than the rc and β controls; also recorded: more strongly bound
[2]
  binding of pre-aggregated, toxic Aβ: bound pre-aggregated, toxic Aβ preferentially
[3]; NMR conditions: very high sample concentrations, 50 mM potassium phosphate, 100 mM KCl pH 5.8
  association state in solution: well-behaved monomers
[3]
  solubility: soluble

## Ac-RGEmNiSwMNEYSGWtMnLkMGR-NH2 [peptide #1]
[4]
  inhibition of the remaining TTR aggregation: 81%
[4]; peptide co-incubated in excess 20:1 (800 μM) with 40 μM TTR monomer, pH 4.5, 37° C., after 48 hours, relative to TTR alone at low pH
  percentage inhibition of TTR aggregation: 72%
[5]; 4-fold excess of peptide, 25° C. (RT), neutral pH buffer with ThT, listed as α1
  inhibition of Aβ aggregation at 4-fold excess: essentially completely abolishes aggregation; also recorded: quenches Aβ aggregation
[5]
  time of aggregation at which the inhibitory effect is exerted: approximately 6 hrs
  inhibition of Aβ fibril formation: approximately 87%
  inhibition of aggregation of pre-aggregated, toxic Aβ: 97%
[1]
  binding of native, tetrameric TTR: did not bind
[1]; listed as α1
  binding of pre-incubated, toxic oligomer-containing TTR: to a greater extent than the rc and β controls; also recorded: more strongly bound
[2]; listed as α1
  binding of pre-aggregated, toxic Aβ: preferentially bound the pre-aggregated, toxic form of Aβ
[2]; fresh (0 h) Aβ
  binding of fresh, monomeric Aβ: did not bind
[6]
  Inhibits Aggregation and/or binds oligomer?: demonstrate activity and yes

## Aβ: β-amyloid peptide 1-42 (AMYD-002; CPC Scientific)
[7]
  viability of treated cells: less than 50%
